Experimental findings from patent publication EP4617271A1, “PROTEOLYTIC CHIMERAS FOR THE TREATMENT OF A CANCER RELATED TO CERT” (Consejo Superior De Investigaciones Científicas - CSIC, priority 2024, dated 2025) are described below.

One assay concerns the target T1, CERT (Homo sapiens, UniProt Q9Y5P4).
T1 construct: endogenous in cells; host or cells: MDA-MB-231, MDA-MB-453 (WT and lapatinib-resistant), BT-474 (WT and lapatinib-resistant)
T1 sequence (Q9Y5P4 1-624): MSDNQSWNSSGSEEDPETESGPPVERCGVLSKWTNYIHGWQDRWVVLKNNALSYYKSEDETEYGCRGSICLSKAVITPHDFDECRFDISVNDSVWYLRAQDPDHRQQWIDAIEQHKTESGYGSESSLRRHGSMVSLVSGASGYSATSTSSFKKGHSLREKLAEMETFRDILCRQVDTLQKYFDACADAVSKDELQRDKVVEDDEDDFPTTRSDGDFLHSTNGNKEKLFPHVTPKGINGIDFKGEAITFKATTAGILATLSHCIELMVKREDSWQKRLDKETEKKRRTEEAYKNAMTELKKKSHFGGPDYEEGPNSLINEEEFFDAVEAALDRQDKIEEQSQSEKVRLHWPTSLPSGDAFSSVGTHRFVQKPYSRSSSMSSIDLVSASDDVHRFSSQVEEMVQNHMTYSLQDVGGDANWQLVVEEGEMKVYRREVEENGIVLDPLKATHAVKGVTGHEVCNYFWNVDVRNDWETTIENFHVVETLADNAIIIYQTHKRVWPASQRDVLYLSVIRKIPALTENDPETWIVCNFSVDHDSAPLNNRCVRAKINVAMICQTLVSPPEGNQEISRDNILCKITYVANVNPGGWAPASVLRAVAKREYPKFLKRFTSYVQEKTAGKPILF
The assay can be described thus: Degradation of CERT in cultured human breast cancer cells (SDS-PAGE and immunoblot). It is filed as cell-based. The following applies: for degradation of CERT / levels of CERT in cells: 24 h; for degradation of CERT: immunoblot vs DMSO. Here is the method:
(§1) MDA-MB-231 cells were grown in DMEM media (Sigma) supplemented with 10% fetal bovine serum (FBS) (Sigma), 2 mM L-glutamine (Thermo Fisher) and 100 U/mL penicillin/ 100 ug/mL streptomycin (Thermo Fisher). MDA-MB-453 cells were grown in DMEM/F12 media (Gibco) supplemented with 10% fetal bovine serum (FBS) (Sigma), 2 mM L-glutamine (Thermo Fisher), 2.5 ug/mL amphotericin B and 100 U/mL penicillin/ 100 ug/mL streptomycin (Thermo Fisher). BT-474 cells were grown in DMEM/F12 media (Gibco) supplemented with 10% fetal bovine serum (FBS) (Sigma), 2 mM L-glutamine (Thermo Fisher), 10 ug/mL insulin, 2.5 ug/mL amphotericin B and 100 U/mL penicillin/ 100 ug/mL streptomycin (Thermo Fisher).
Then, medium was removed and cells were washed with PBS, trypsinized and the pellets were disrupted by probe sonication in a 0.25 M solution of Saccharose. An aliquot was used for protein quantification and the same amount of protein per treatment was treated with laemli buffer (95 °C/5 min). The protein extracts were analyzed by SDS-PAGE electrophoresis followed by immunoblot using the following antibodies: CERT1, Abcam Ab72536; USP14, Cell signaling CS-11931; Actin, Abcam Ab5694.
Chimeras were tested in different types of breast cancer cell lines: • MDA-MB-231, lacking the estrogen receptor (ER), progesterone receptor (PR) and human epidermal growth factor receptor-2 (HER2).
In general terms: A western blot detects proteins with antibodies after separation by electrophoresis.

A further assay concerns BT-474/Lap cells. Kind of assay: Cell viability (MTT), sensitization to lapatinib, BT-474/Lap. The format is cell-based, human. The following applies: 24 h; for sensitization to Lapatinib treatments: Protac 20 µM, lapatinib 0.63-30 µM, shift of dose response curve vs vehicle; for CC50 vehicle /CC50 Protac ratio: lapatinib CC50 without vs with Protac 20 µM. The method, then: as §1
(§2) For cell proliferation assays, cells were plated at a density of 10,000 cells/well in a 96-well plate. […] MTT reagent was added to cell culture media. After 3 h incubation, culture medium was replaced by DMSO. MTT formazan crystals were solubilized in DMSO using a plate agitator for 30 min prior to reading absorbance at 570 nm with a SYNERGY H1 microplate reader (BioTek

In a further assay the test system is MDA-MB-453/Lap cells. The assay can be described thus: Cell viability (MTT), sensitization to lapatinib, MDA-MB-453/Lap. The format is cell-based, human. The following applies: 24 h; for sensitization to Lapatinib treatments: Protac 10 µM, lapatinib 3-50 µM, shift of dose response curve vs vehicle; for change in viability: lapatinib 10 µM in the presence of Protac 10 µM; for CC50 vehicle /CC50 Protac ratio: lapatinib CC50 without vs with Protac 10 µM. Here is the method: as §1, §2

The subject of a further assay is BT-474/WT cells. Kind of assay: Cell viability (MTT), sensitization to lapatinib, BT-474/WT. The format is cell-based, human. The following applies: 24 h; for sensitization to Lapatinib treatments: Protac 20 µM, lapatinib 0.63-30 µM; for CC50 vehicle /CC50 Protac ratio: lapatinib CC50 without vs with Protac 20 µM. Here is the method: as §1, §2
The subject of the next assay is MDA-MB-453/WT cells. The assay can be described thus: Cell viability (MTT), sensitization to lapatinib, MDA-MB-453/WT. The format is cell-based, human. The note with it: 24 h; for sensitization to Lapatinib treatments: Protac 10 µM, lapatinib 3-50 µM, shift of dose response curve vs vehicle; for change in viability: lapatinib 10 µM in the presence of Protac 10 µM; for CC50 vehicle /CC50 Protac ratio: lapatinib CC50 without vs with Protac 10 µM. The method, then: as §1, §2

Where [1] appears, read: BT-474 (WT) cells, 10 µM, 20 µM per Figure 1 legend.
Setting [2] is: BT-474/Lap (lapatinib resistant) cells, 1, 5, 10, 20, 30 and 40 µM, immunoblot vs DMSO (Figure 6).
The mark [3] stands for this setting: MDA-MB-231 cells, 10 µM, time course 2, 4, 6, 8, 16 and 24 h.
Where [4] appears, read: MDA-MB-453/Lap (lapatinib resistant) cells, 1, 5, 10, 20, 30 and 40 µM, immunoblot vs DMSO (Figure 4).

Consider `Cc1cc(C(=O)N2CCC(COC(=O)NCCOCCOCCOCCn3cc(CCCCCCCCC(=O)N[C@@H](CO)C[C@H](O)c4ccccc4)nn3)CC2)c(C)n1-c1ccc(F)cc1` [RBM3-368], for which the “degradation of CERT” value at CERT (setting [1]) is “induced the degradation of CERT”; at CERT (MDA-MB-231 cells, 10 µM), “induced the degradation of CERT”; on CERT (MDA-MB-453 (WT) cells, 10 µM) it was “induced the degradation of CERT”. The “levels of CERT in cells” value on CERT (setting [2]) and on CERT (setting [4]) was “treatments have reduced the levels of CERT in cells” throughout. The “time of CERT degradation effect” value on CERT (setting [3]) was 16 to 24 h. Moreover, on CERT (setting [3]), the “time of maximum degradation” value is listed as 24 h.
Regarding `Cc1cc(C(=O)N2CCC(COC(=O)NCCOCCOCCn3cc(CCCCCCCCC(=O)N[C@@H](CO)C[C@H](O)c4ccccc4)nn3)CC2)c(C)n1-c1ccc(F)cc1` [RBM3-386, (1-(1-(4-Fluorophenyl)-2,5-dimethyl-1H-pyrrole-3-carbonyl)piperidin-4-yl)methyl (2-(2-(2-(4-(9-(((2R,4S)-1,4-dihydroxy-4-phenylbutan-2-yl)amino)-9-oxononyl)-1H-1,2,3-triazol-1-yl)ethoxy)ethoxy)ethyl) carbamate], the “degradation of CERT” value at CERT (setting [1]) is given as “induced the degradation of CERT”; at CERT (MDA-MB-231 cells, 10 µM), “induced the degradation of CERT”; on CERT (MDA-MB-453 (WT) cells, 10 µM), “induced the degradation of CERT”. Moreover, the “levels of CERT in cells” value on CERT (setting [2]) and at CERT (setting [4]) was “treatments have reduced the levels of CERT in cells” throughout.
With `Cc1cc(C(=O)N2CCC(Cn3cc(CCCCCCCCC(=O)N[C@@H](CO)C[C@H](O)c4ccccc4)nn3)CC2)c(C)n1-c1ccc(F)cc1` [RBM3-395, N-((2R,4S)-1,4-Dihydroxy-4-phenylbutan-2-yl)-9-(1-((1-(1-(4-fluorophenyl)-2,5-dimethyl-1H-pyrrole-3-carbonyl)piperidin-4-yl)methyl)-1H-1,2,3-triazol-4-yl)nonanamide], the “degradation of CERT” value on CERT (setting [1]) is given as “induced the degradation of CERT”; at CERT (MDA-MB-231 cells, 10 µM) it was “induced the degradation of CERT”; at CERT (MDA-MB-453 (WT) cells, 10 µM), “induced the degradation of CERT”. In addition, the “levels of CERT in cells” value on CERT (setting [2]) and at CERT (setting [4]) was “treatments have reduced the levels of CERT in cells” in each case. The “sensitization to Lapatinib treatments” value is “potent sensitization” in the assay on BT-474/Lap cells; “potent sensitization” in the assay with MDA-MB-453/Lap cells; “sensitized cells to lapatinib treatments” with BT-474/WT cells; “Sensitization was also observed, yet mildly” with MDA-MB-453/WT cells. For the same compound, the “CC50 vehicle /CC50 Protac ratio” value is on record as 5.23 in the assay with BT-474/Lap cells, 2.05 with MDA-MB-453/Lap cells, 6.22 in the assay on BT-474/WT cells and 2.27 in the assay with MDA-MB-453/WT cells. The change in viability in the assay with MDA-MB-453/Lap cells and in the assay on MDA-MB-453/WT cells was -38% throughout.
Regarding `Cc1cc(C(=O)N2CCC(COC(=O)NCCOCCn3cc(CCCCCCCCC(=O)N[C@@H](CO)C[C@H](O)c4ccccc4)nn3)CC2)c(C)n1-c1ccc(F)cc1` [RBM3-413, (1-(1-(4-Fluorophenyl)-2,5-dimethyl-1H-pyrrole-3-carbonyl)piperidin-4-yl)methyl (2-(2-(4-(9-(((2R,4S)-1,4-dihydroxy-4-phenylbutan-2-yl)amino)-9-oxononyl)-1H-1,2,3-triazol-1-yl)ethoxy)ethyl)carbamate], the “degradation of CERT” value was “induced the degradation of CERT” at CERT (setting [1]); “induced the degradation of CERT” at CERT (MDA-MB-231 cells, 10 µM); “induced the degradation of CERT” at CERT (MDA-MB-453 (WT) cells, 10 µM). Also, the “levels of CERT in cells” value at CERT (setting [2]) and at CERT (setting [4]) was “treatments have reduced the levels of CERT in cells” throughout. Moreover, the “sensitization to Lapatinib treatments” value in the assay on BT-474/Lap cells is “potent sensitization”; in the assay with MDA-MB-453/Lap cells, “potent sensitization”; in the assay on BT-474/WT cells it was “sensitized cells to lapatinib treatments”; in the assay with MDA-MB-453/WT cells, “Sensitization was also observed, yet mildly”. Also, the “CC50 vehicle /CC50 Protac ratio” value in the assay on BT-474/Lap cells was 5.56; in the assay on MDA-MB-453/Lap cells, 2.33; in the assay on BT-474/WT cells, 3.84; with MDA-MB-453/WT cells, 1.98. The change in viability in the assay on MDA-MB-453/Lap cells and with MDA-MB-453/WT cells was -38% each time.
Turning to `Cc1cc(C(=O)N2CCC(COC(=O)NCCOCCOCCOCCOCCOCCn3cc(CCCCCCCCC(=O)N[C@@H](CO)C[C@H](O)c4ccccc4)nn3)CC2)c(C)n1-c1ccc(F)cc1` [RBM3-419, (1-(1-(4-Fluorophenyl)-2,5-dimethyl-1H-pyrrole-3-carbonyl)piperidin-4-yl)methyl (17-(4-(9-(((2R,4S)-1,4-dihydroxy-4-phenylbutan-2-yl)amino)-9-oxononyl)-1H-1,2,3-triazol-1-yl)-3,6,9,12,15-pentaoxaheptadecyl)carbamate], the “degradation of CERT” value on CERT (setting [1]) was “induced the degradation of CERT”; at CERT (MDA-MB-231 cells, 10 µM), “induced the degradation of CERT”; on CERT (MDA-MB-453 (WT) cells, 10 µM), “induced the degradation of CERT”. Besides, the “levels of CERT in cells” value on CERT (setting [2]) and at CERT (setting [4]) was “treatments have reduced the levels of CERT in cells” in each case.
